# Experimental data from US20120219596A1, “INJECTABLE FORMULATION FOR TREATMENT AND PROTECTION OF PATIENTS HAVING AN INFLAMMATORY REACTION OR AN ISCHEMIA-REPERFUSION EVENT” (ETH Zurich, priority 2009, published 2012).
# Like-named read-outs stand apart in the source and are kept apart here.
# Legend:
# [1] = test system: MCP-1 levels of rat alveolar epithelial cells; experiment: MCP-1 levels in supernatants of LPS-stimulated rat alveolar epithelial cells (ELISA); format: cell-based
# Description: Table 2 MCP-1 levels of rat alveolar epithelial cells measured in supernatants in relation to an exposition to LPS without any substance (positive control=100%)
# (§1) METHODS: Different molecules with CF3-group were tested against their corresponding non-fluorinated molecules. The group of molecules with CF3-group included hexafluoroisopropanol, 2,2,3,3,3-pentafluoro-1-propanol, 2,2,2-trifluorethanol, 3-amino-4,4,4-tri-fluorobutyroic acid, methyl-4,4,4-trifluoro-acetoacetate, methyl-trifluoro-acetamide, 5,5,5-trifluorleucine and Sevoflurane. In the group without CFx moieties 2-propanol, 1-propanol, ethanol, leucine, and diethyl ether were included. As well established model rat alveolar epithelial cells (AEC) and human blood microvascular cells (HMVEC) were exposed to phosphate-buffered saline (PBS, negative control) or LPS (20 μg/ml) for 6 hours (positive control). The influence of fluorinated compounds and non-fluorinated reference compounds on the inflammatory response of the cells was tested. Expression of rat-MCP-1 (BD Biosciences, San Diego, Calif.) and human CINC-1 GROa (R&D Systems Europe Ltd.) protein were analyzed by ELISA. Evaluation of possible cytotoxicity was done counting cells by means of fluorescence DNA quantification assays. At the same time release of lactate dehydrogenase into the supernatants was measured (LDH Assay, Promega, Madison, Wis., USA).
# [2] = test system: CINC-1/GROa protein levels of human blood micro vascular endothelial cells; experiment: CINC-1/GROa protein levels in supernatants of LPS-stimulated HMVEC (ELISA); format: cell-based; details: for CINC-1/GROa protein level in relation to LPS without any substance, Median: HMVEC, LPS 20 μg/ml 6 hours, positive control=100%
# Description: Table 1 CINC-1/GROa protein levels of human blood micro vascular endothelial cells measured in supernatants in relation to an exposition to LPS without any substance (positive control=100%)
# as §1
# [3] = test system: human microvascular endothelial cells (HMVEC); experiment: Viability and cytotoxicity in HMVEC (LDH release, fluorescence DNA quantification); format: cell-based; details: LDH release and cell count by fluorescence DNA quantification, in relation to control (100%), FIG. 1
# Description: Viability is assessed by measuring the release of lactate de-hydrogenase and cytotoxicity is quantified by counting cells by means of fluorescence DNA quantification assays (see example 1). […] Concentration level differences are presented in relation to control (100%).
# as §1
# [4] = cited from earlier work
# [5] = cited from earlier work; remark: listed apart in the source
# [6] = test system: inflammatory mediators and tissue damage markers (troponin or serum transaminase levels); details: patients undergoing lung, heart or liver surgery; cited from earlier work
# [7] = test system: polymorphonuclear neutrophils; experiment: Chemotactic migration of polymorphonuclear neutrophils towards supernatants from LPS-stimulated endothelial cells; format: cell-based; details: 16 mmol/L, FIG. 2
# Description: Furthermore, the effect of hexafluoro-2-propanol in a concentration of 16 mmol/L on the chemotactic migration of polymorphonuclear neutrophils towards supernatants from LPS-stimulated endothelial cells (right side, 270)° and towards supernatants from LPS-stimulated endothelial cells incubated with hexafluoro-2-propanol (left side, 90°) was assessed according to (De Conno et al., Anesthesiology 2009; 110:1316-1326)
# [8] = rat AEC, LPS 20 μg/ml 6 hours, 16 mmol/l in culture medium, positive control=100%
# [9] = rat AEC, LPS 20 μg/ml 6 hours, 32 mmol/l in culture medium, positive control=100%
# [10] = rat AEC, LPS 20 μg/ml 6 hours, 64 mmol/l in culture medium, positive control=100%
# [11] = Epithelial cell, rat AEC, LPS 20 μg/ml 6 hours, 16 mmol/l in culture medium, positive control=100%, read-out: MCP-1 level in relation to LPS without any substance, Median
# [12] = Epithelial cell, rat AEC, LPS 20 μg/ml 6 hours, 64 mmol/l in culture medium, positive control=100%, read-out: MCP-1 level in relation to LPS without any substance, Median
# [13] = footnote 1: Qiana et al., Journal of Chromatography A 2007
# [14] = Epithelial cell, rat AEC, LPS 20 μg/ml 6 hours, 32 mmol/l in culture medium, positive control=100%, read-out: MCP-1 level in relation to LPS without any substance, Median
# [15] = Rattus norvegicus, Epithelial cell, 6 h, read-out: MCP-1 level in relation to LPS without any substance, Median
compound,measurement,setting,value
"CC(N)CC(=O)O (racemic) [DL-3-Amino-n-butyric acid, reference compound]","MCP-1 level in relation to LPS without any substance, Median","[1]; rat AEC, LPS 20 μg/ml 6 hours, 8 mmol/l in culture medium, positive control=100%",95%
same,"MCP-1 level in relation to LPS without any substance, Median",[1]; [8],91%
same,"MCP-1 level in relation to LPS without any substance, Median",[1]; [9],149%
same,"MCP-1 level in relation to LPS without any substance, Median",[1]; [10],117%
"CCCO [1-Propanol, reference compound]","CINC-1/GROa protein level in relation to LPS without any substance, Median",[2]; 16 mmol/l in culture medium,82%
same,"CINC-1/GROa protein level in relation to LPS without any substance, Median",[2]; 32 mmol/l in culture medium,81%
same,"CINC-1/GROa protein level in relation to LPS without any substance, Median",[2]; 64 mmol/l in culture medium,64%
same,"MCP-1 level in relation to LPS without any substance, Median",[1]; [8],99%
same,"MCP-1 level in relation to LPS without any substance, Median",[1]; [10],74%
"OCC(F)(F)F [2,2,2-Trifluorethanol, 2,2,2-Trifluoroethanol]","CINC-1/GROa protein level in relation to LPS without any substance, Median",[2]; 16 mmol/l in culture medium,98%
same,"CINC-1/GROa protein level in relation to LPS without any substance, Median",[2]; 32 mmol/l in culture medium,78%
same,"CINC-1/GROa protein level in relation to LPS without any substance, Median",[2]; 64 mmol/l in culture medium,73%
same,activity at 16000 µM,[1]; [11],58%
same,activity at 64000 µM,[1]; [12],59%
same,Viability and cytotoxicity in HMVEC,[3],does not cause significant cytotoxicity
same,Octanol water partition coefficient,[4]; [13],0.17 ^(1)
same,Solubility,[5]; in words,miscible
"OCC(F)(F)C(F)(F)F [2,2,3,3,3-Pentafluoro-1-propanol]","CINC-1/GROa protein level in relation to LPS without any substance, Median",[2]; 16 mmol/l in culture medium,115%
same,"CINC-1/GROa protein level in relation to LPS without any substance, Median",[2]; 32 mmol/l in culture medium,41%
same,"CINC-1/GROa protein level in relation to LPS without any substance, Median",[2]; 64 mmol/l in culture medium,31%
same,activity at 16000 µM,[1]; [11],92%
same,activity at 64000 µM,[1]; [12],70%
same,Solubility,[5]; 25° C.,21.9 g/L (25° C.)
"CC(C)O [2-Propanol, reference compound]","CINC-1/GROa protein level in relation to LPS without any substance, Median",[2]; 4 mmol/l in culture medium,109%
same,"CINC-1/GROa protein level in relation to LPS without any substance, Median",[2]; 16 mmol/l in culture medium,97%
same,"MCP-1 level in relation to LPS without any substance, Median",[1]; [8],101%
same,"MCP-1 level in relation to LPS without any substance, Median",[1]; [9],86%
same,"MCP-1 level in relation to LPS without any substance, Median",[1]; [10],82%
"NC(CC(=O)O)C(F)(F)F (centres unmarked) [3-Amino-4,4,4-Trifluorobutyroic acid, 3-Amino-4,4,4-trifluorobutyric acid]","CINC-1/GROa protein level in relation to LPS without any substance, Median",[2]; 8 mmol/l in culture medium,79%
same,"CINC-1/GROa protein level in relation to LPS without any substance, Median",[2]; 16 mmol/l in culture medium,0%
same,"CINC-1/GROa protein level in relation to LPS without any substance, Median",[2]; 64 mmol/l in culture medium,0%
same,activity at 16000 µM,[1]; [11],101%
same,activity at 32000 µM,[1]; [14],44%
same,activity at 64000 µM,[1]; [12],0%
same,Viability and cytotoxicity in HMVEC,[3],does not cause significant cytotoxicity
same,melting point,,180 to 190 °C
"CC(C[C@H](N)C(=O)O)C(F)(F)F (some centres unmarked) [5,5,5-Trifluorleucine]","MCP-1 level in relation to LPS without any substance, Median",[1]; [8],68%
"ClC(Cl)Cl [Chloroform, reference compound]",activity at 64000 µM,[1]; [15],171%
FC(F)OC(F)C(F)(F)F (centres unmarked) [Desflurane],Octanol water partition coefficient,[4]; footnote 2: Urban et al. 1995,28.5
same,Inflammatory mediators and tissue damage markers in patients,[6],significantly reduces
"CCO [Ethanol, reference compound]","CINC-1/GROa protein level in relation to LPS without any substance, Median",[2]; 16 mmol/l in culture medium,107%
same,"CINC-1/GROa protein level in relation to LPS without any substance, Median",[2]; 32 mmol/l in culture medium,91%
same,"CINC-1/GROa protein level in relation to LPS without any substance, Median",[2]; 64 mmol/l in culture medium,88%
same,activity at 16000 µM,[1]; [11],103%
same,activity at 64000 µM,[1]; [12],92%
FC(F)(F)C(Cl)Br (centres unmarked) [Halothane],Octanol water partition coefficient,[4]; footnote 2: Urban et al. 1995,315
"OC(C(F)(F)F)C(F)(F)F [Hexafluoroisopropanol, 1,1,1,3,3,3-Hexafluoropropan-2-ol]","CINC-1/GROa protein level in relation to LPS without any substance, Median",[2]; 4 mmol/l in culture medium,49%
same,"CINC-1/GROa protein level in relation to LPS without any substance, Median",[2]; 16 mmol/l in culture medium,26%
same,CINC-1 levels of endothelial cells stimulated with LPS (in words),[2]; LPS stimulation,decrease was most pronounced
same,activity at 4000 µM,"[1]; Epithelial cell, rat AEC, LPS 20 μg/ml 6 hours, 4 mmol/l in culture medium, positive control=100%, read-out: MCP-1 level in relation to LPS without any substance, Median",98%
same,activity at 8000 µM,"[1]; Epithelial cell, rat AEC, LPS 20 μg/ml 6 hours, 8 mmol/l in culture medium, positive control=100%, read-out: MCP-1 level in relation to LPS without any substance, Median",101%
same,activity at 16000 µM,[1]; [11],63%
same,activity at 32000 µM,[1]; [14],11%
same,MCP-1 levels of epithelial cells stimulated with LPS (in words),[1]; LPS stimulation,decrease was most pronounced
same,Viability and cytotoxicity in HMVEC,[3],does not cause significant cytotoxicity
same,Chemotaxis for neutrophils,[7],significantly attenuated chemotaxis
same,Octanol water partition coefficient,[4]; [13],0.37 ^(1)
same,Solubility,[5]; 25° C.,1000 g/L (25° C.)
FC(F)OC(Cl)C(F)(F)F (centres unmarked) [Isoflurane],Octanol water partition coefficient,[4]; footnote 2: Urban et al. 1995,156
same,Inflammatory mediators and tissue damage markers in patients,[6],significantly reduces
"CC(C)C[C@H](N)C(=O)O [Leucine, reference compound]",activity at 16000 µM,[1]; [11],91%
"COC(=O)CC(=O)C(F)(F)F [Methyl-4,4,4-trifluoro-acetoacetate]",activity at 16000 µM,[1]; [11],7%
same,activity at 32000 µM,[1]; [14],0%
"CNC(=O)C(F)(F)F [Methyltrifluoroacetamide, N-Methyl-2,2,2-trifluoroacetamide]",activity at 8000 µM,[1]; [15],80%
same,activity at 16000 µM,[1]; [15],56%
same,activity at 32000 µM,[1]; [15],41%
same,activity at 64000 µM,[1]; [15],0%
Enflurane,Octanol water partition coefficient,[4]; footnote 2: Urban et al. 1995,122
Sevoflurane,"MCP-1 level in relation to LPS without any substance, Median",[1]; [10],68%
same,Octanol water partition coefficient,[4]; footnote 2: Urban et al. 1995,71
same,Inflammatory mediators and tissue damage markers in patients,[6],significantly reduces
